Test results: patent publication US20250171447A1, “ADENOSINE RECEPTOR ANTAGONISTS, PHARMACEUTICAL COMPOSITIONS AND THEIR USE THEREOF” (Merck Sharp & Dohme LLC, priority 2022, published 2025)
pIC50: −log10 of the molar value.

Columns and labels:
[1] = biological target: human A2A adenosine receptor (Homo sapiens (Human), UniProt P29274); experiment: A2A receptor affinity binding assay (radioligand filtration binding or SPA, [3H]SCH58261); details: membranes from HEK293 or CHO cells expressing human A2A; Method (A) filtration or Method (B) SPA
[2] = biological target: human A2B adenosine receptor (Homo sapiens (Human), UniProt P29275); experiment: A2B binding affinity radioligand filtration binding assay; details: membranes from HEK293 cells expressing human A2B; tritiated proprietary A2B antagonist
Chain of human A2B adenosine receptor (P29275 whole entry): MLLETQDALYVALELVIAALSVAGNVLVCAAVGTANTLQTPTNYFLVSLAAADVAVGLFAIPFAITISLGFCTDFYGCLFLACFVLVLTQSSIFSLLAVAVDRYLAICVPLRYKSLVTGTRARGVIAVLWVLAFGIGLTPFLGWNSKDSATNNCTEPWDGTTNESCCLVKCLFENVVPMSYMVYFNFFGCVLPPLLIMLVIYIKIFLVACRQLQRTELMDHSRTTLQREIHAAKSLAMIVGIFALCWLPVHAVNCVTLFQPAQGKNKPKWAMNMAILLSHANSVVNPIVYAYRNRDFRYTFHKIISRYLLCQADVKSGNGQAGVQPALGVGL

Chain of human A2A adenosine receptor (P29274 whole entry): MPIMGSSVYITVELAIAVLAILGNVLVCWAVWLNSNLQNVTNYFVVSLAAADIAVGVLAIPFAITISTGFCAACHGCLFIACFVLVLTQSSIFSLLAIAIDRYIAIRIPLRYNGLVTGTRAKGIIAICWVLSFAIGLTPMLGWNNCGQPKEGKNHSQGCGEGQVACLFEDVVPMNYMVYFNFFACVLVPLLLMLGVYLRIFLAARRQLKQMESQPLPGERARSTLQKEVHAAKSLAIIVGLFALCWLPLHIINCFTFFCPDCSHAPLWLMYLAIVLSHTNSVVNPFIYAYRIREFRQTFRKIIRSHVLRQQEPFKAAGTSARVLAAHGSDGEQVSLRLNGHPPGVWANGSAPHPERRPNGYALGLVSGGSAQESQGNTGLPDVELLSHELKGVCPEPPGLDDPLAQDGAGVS

`COc1cccc2c1nc(N)n1nc([C@H]3C[C@H](c4ccccc4)C3)nc21` [Ex-136, 7-methoxy-2-((1r,3r)-3-phenylcyclobutyl)-[1,2,4]triazolo[1,5-c]quinazolin-5-amine] gave a pIC50 [1] of 8.66 and a pIC50 [2] of 6.94.
For `COc1cccc2c1nc(N)n1nc(C3CC3c3ccc4c(c3)CNC4=O)nc21` (centres unmarked) [Ex-8, 5-[2-(5-amino-7-methoxy[1,2,4]triazolo [1,5-c]quinazolin-2-yl)cyclopropyl]-2,3-dihydro-1H-isoindol-1-one], the pIC50 [1] was 8.82 and the pIC50 [2] was 7.51.
For `CNC(=O)c1cccc(C2CC2c2nc3c4cccc(OC)c4nc(N)n3n2)c1` (centres unmarked) [Ex-4, 3-[2-(5-amino-7-methoxy[1,2,4]triazolo [1,5-c]quinazolin-2-yl)cyclopropyl]-N-methylbenzamide], the pIC50 [1] was 9.40 and the pIC50 [2] was 7.60.
`COc1cccc2c1nc(N)n1nc(C3CC3c3ccccc3[C@@H](C)O)nc21` (stereo partly drawn) [Ex-12, (1R)-1-{2-[2-(5-amino-7-methoxy[1,2,4]triazolo [1,5-c]quinazolin-2-yl)cyclopropyl]phenyl} ethan-1-ol] was tested, and the pIC50 [1] was 8.49 and the pIC50 [2] was 6.55.
Compound `CNC(=O)c1ccc(C2CC2c2nc3c4cccc(OC)c4nc(N)n3n2)cc1` (centres unmarked) [Ex-19, 4-[2-(5-amino-7-methoxy[1,2,4]triazolo [1,5-c]quinazolin-2-yl)cyclopropyl]-N-methylbenzamide] has a pIC50 [1] of 8.24 and a pIC50 [2] of 7.48.
With `COc1cc(F)cc2c1nc(N)n1nc(C3CC(c4ccc(C(C)(C)N)cn4)C3)nc21` (centres unmarked) [Ex-69, 2-{3-[5-(2-aminopropan-2-yl)pyridin-2-yl]cyclobutyl}-9-fluoro-7-methoxy[1,2,4]triazolo[1,5-c]quinazolin-5-amine] the pIC50 [1] was 8.21 and the pIC50 [2] was 9.52.
With `COc1cccc2c1nc(N)n1nc(C3CC3c3ccccc3[C@H](C)O)nc21` (stereo partly drawn) [Ex-15, (1S)-1-{2-[2-(5-amino-7-methoxy[1,2,4]triazolo [1,5-c]quinazolin-2-yl)cyclopropyl]phenyl} ethan-1-ol] the pIC50 [1] was 8.47 and the pIC50 [2] was 5.74.
In the case of `COc1cccc2c1nc(N)n1nc(C3CC3c3ccc4c(c3)CCNC4)nc21` (centres unmarked) [Ex-38, 7-methoxy-2-[(1r,2r)-2-(1,2,3,4-tetrahydroisoquinolin-6-yl)cyclopropyl]-1,10b-dihydro[1,2,4]triazolo [1,5-c]quinazolin-5-amine], the pIC50 [1] was 8.96 and the pIC50 [2] was 8.51.
`CCn1cc(C2CC2c2nc3c4cccc(OC)c4nc(N)n3n2)cn1` (centres unmarked) [Ex-14, 2-[2-(1-ethyl-1H-pyrazol-4-yl)cyclopropyl]-7-methoxy[1,2,4]triazolo [1,5-c]quinazolin-5-amine] showed a pIC50 [1] of 8.48 and a pIC50 [2] of 7.25.
`COc1cccc2c1nc(N)n1nc(C3CC3c3cnc(C)nc3)nc21` (centres unmarked) [Ex-26, 7-methoxy-2-[2-(2-methylpyrimidin-5-yl)cyclopropyl][1,2,4] triazolo[1,5-c] quinazolin-5-amine] gave a pIC50 [1] of 7.91 and a pIC50 [2] of 6.14.
`COc1cccc2c1nc(N)n1nc([C@H]3C[C@H](c4ncc(C(C)(C)N)cc4F)C3)nc21` [Ex-85, 2-{trans-3-[5-(2-aminopropan-2-yl)-3-fluoropyridin-2-yl]cyclobutyl}-7-methoxy[1,2,4]triazolo[1,5-c]quinazolin-5-amine] gave a pIC50 [1] of 8.57 and a pIC50 [2] of 8.89.
Work on `COc1cccc2c1nc(N)n1nc([C@H]3C[C@H](c4cccc(C(C)(C)O)c4)C3)nc21` [Ex-46, 2-{3-[trans-3-(5-amino-7-methoxy [1,2,4]triazolo [1,5-c]quinazolin-2-yl)cyclobutyl]phenyl} propan-2-ol] yielded a pIC50 [1] of 7.74 and a pIC50 [2] of 7.16.
In the case of `COc1cccc2c1nc(N)n1nc(C3CC3c3cnc(NCCO)nc3)nc21` (centres unmarked) [Ex-22, 2-({5-[2-(5-amino-7-methoxy[1,2,4]triazolo [1,5-c]quinazolin-2-yl)cyclopropyl]pyrimidin-2-yl}amino)ethan-1-ol], the pIC50 [1] was 8.11 and the pIC50 [2] was 6.88.
Work on `COc1cccc2c1nc(N)n1nc([C@@H]3C[C@H]3c3ccc(C(C)(C)O)cc3)nc21` [Ex-1, 2-(4-((1r,2r)-2-(5-amino-7-methoxy-[1,2,4]triazolo[1,5-c]quinazolin-2-yl)cyclopropyl)phenyl)propan-2-ol] yielded a pIC50 [1] of 7.76 and a pIC50 [2] of 7.58.
For `COc1cccc2c1nc(N)n1nc([C@H]3C[C@@H](c4ccc(C(C)(C)N)cn4)C3)nc21` [Ex-67, 2-((1s,3s)-3-(5-(2-aminopropan-2-yl)pyridin-2-yl)cyclobutyl)-7-methoxy-[1,2,4]triazolo[1,5-c]quinazolin-5-amine], the pIC50 [1] was 8.37 and the pIC50 [2] was 8.74.
`COc1cccc2c1nc(N)n1nc([C@H]3C[C@@H](c4cccc(C(C)(C)O)c4)C3)nc21` [Ex-47, 2-{3-[cis-3-(5-amino-7-methoxy [1,2,4]triazolo [1,5-c]quinazolin-2-yl)cyclobutyl]phenyl} propan-2-ol] was tested, and the pIC50 [1] was 8.01 and the pIC50 [2] was 7.97.
For `COc1cc(F)cc2c1nc(N)n1nc([C@H]3C[C@](O)(c4ccc(C(C)(C)O)nc4)C3)nc21` [Ex-139, (1s,3s)-3-(5-amino-9-fluoro-7-methoxy-[1,2,4]triazolo[1,5-c]quinazolin-2-yl)-1-(6-(2-hydroxypropan-2-yl)pyridin-3-yl)cyclobutan-1-ol], the pIC50 [1] was 7.44 and the pIC50 [2] was 5.60.
`COc1cccc2c1nc(N)n1nc(C3CC3c3cnn(C)c3)nc21` (centres unmarked) [Ex-27, 7-methoxy-2-[2-(1-methyl-1H-pyrazol-4-yl)cyclopropyl][1,2,4] triazolo[1,5-c] quinazolin-5-amine] gave a pIC50 [1] of 7.01 and a pIC50 [2] of 6.06.
In the case of `COc1cccc2c1nc(N)n1nc(C3(CO)CC3)nc21` [Ex-30, [1-(5-amino-7-methoxy[1,2,4]triazolo [1,5-c]quinazolin-2-yl)cyclopropyl]methanol], the pIC50 [1] was 7.37 and the pIC50 [2] was 6.04.
`COc1cccc2c1nc(N)n1nc(C3CC3C)nc21` (centres unmarked) [Ex-10, 7-methoxy-2-[2-methylcyclopropyl] [1,2,4]triazolo[1,5-c] quinazolin-5-amine] gave a pIC50 [1] of 8.59 and a pIC50 [2] of 7.34.
`COc1cccc2c1nc(N)n1nc(C3CC3c3ccc(C(N)=O)c(F)c3)nc21` (centres unmarked) [Ex-17, 4-[2-(5-amino-7-methoxy[1,2,4]triazolo [1,5-c]quinazolin-2-yl)cyclopropyl]-2-fluorobenzamide] showed a pIC50 [1] of 8.39 and a pIC50 [2] of 7.39.
`COc1cccc2c1nc(N)n1nc(C3CC3c3ccc4nncn4c3)nc21` (centres unmarked) [Ex-13, 7-methoxy-2-[2-([1,2,4]triazolo[4,3-a]pyridin-6-yl)cyclopropyl][1,2,4] triazolo[1,5-c] quinazolin-5-amine] was tested, and the pIC50 [1] was 8.48 and the pIC50 [2] was 6.82.
